From US6197258A, “Photoluminescent sensors of chemical analytes” (University of Maryland, Baltimore, priority 1999, dated 2001)
Where two headings read alike, the source gives them in different places.

Assays:
[1] = target: T1, recombinant human carbonic anhydrase II, wild type, holoprotein (holo-CA, Zn(II) bound) (Homo sapiens, UniProt P00918); experiment: Affinity of ABD-M for holo-CA from changes in fluorescence intensity or anisotropy; type: binding; conditions: holocarbonic anhydrase
T1 construct: made in house; host or cells: E. coli (inferred from 'as previously described'; b198 states E. coli for the wild type gene, b110 states BL21(DE3)pACA for a variant)
Excerpt: Our approach for determining metal ions by fluorescence anisotropy is diagrammed in FIG. 16. ABD-M was synthesized by coupling ABD-F (7-fluoro-benz-2-oxa-1,3-diazole-4-sulfonamide; Molecular Probes Cat. No.F-6053) with excess beta-mercaptoethanol in dimethylformamide overnight at room temperature (FIG. 17). […] Recombinant human carbonic anhydrase II was expressed, isolated, and purified; and its Zn(II) removed by treatment with dipicolinate all as previously described. In view of the well-known difficulty of reproducibly preparing solutions with low concentrations of free zinc ion, we prepared a series of metal ion buffers using nitrilotriacetic acid (NTA) and MOPS. […] The concentration of Zn(II) unbound at a particular pH is readily calculable from the known stability constants of the NTA and the pKa's of NTA's ionizable groups (19). […]
Fluorescence spectra, intensities and anisotropies were measured on a Spectronics AB-2 fluorimeter using film polarizers and 4 nm bandpasses. Frequency-dependent phase shifts and demodulations were measured on an ISS K2 phase fluorometer using the UV lines of a Spectra-Physics 2065 argon ion laser for excitation, dimethylPOPOP in ethanol as a reference compound as previously described, and bandpass filters as indicated in the figure legends. […]

[2] = target: T2, wild type human carbonic anhydrase II, holoprotein (holo-CA) (Homo sapiens, UniProt P00918); experiment: KD of the diffusible inhibitor ABD-N for the holoprotein; type: binding
T2 construct: made in house; host or cells: E. coli
Procedure: Genes for wild type human carbonic anhydrase II and variants were isolated, constructed, and expressed in E. coli as previously described. ABD-N was synthesized by coupling ABD-F (Molecular Probes, Eugene, Oreg.) with excess ethanolamine in DMF at room temperature for 4 hours and lyophilizing. Zn(II) was removed from holo-CA to make apo-CA by treatment with dipicolinate as previously described. Fluorescence anisotropy measurements were obtained on an SLM AB-2 spectrophotofluorimeter according to the manufacturer's recommendations, under the spectral conditions given in the figures.
The changes in anisotropy are also dramatic, going from 0.08 to 0.23 as the apoprotein becomes saturated with Zn(II) (FIG. 37); the ordinary accuracy and precision of such measurements is ±0.003. The apparent KD of the enzyme for Zn(II) under these conditions is about 20 picomolar, which is somewhat higher than published values obtained under slightly different conditions.
The use of a separate, diffusible inhibitor like ABD-N can create difficulties, however. […] This Cu(II) determination, while clearly representing a […] response, cannot be due to simple collisional quenching by the Cu(II) at these low concentrations,and furthermore is more than one thousand-fold more sensitive than previous fluorescence-based determinations of Cu(II).

[3] = target: T3, recombinant human carbonic anhydrase II, holocarbonic anhydrase II (Homo sapiens, UniProt P00918); experiment: Affinity of holocarbonic anhydrase for Dapoxyl sulfonamide from fluorescence intensity changes; type: binding; conditions: from fluorescence intensity changes (data not shown)
T3 construct: made in house; host or cells: E. coli (inferred from 'by the means previously discussed herein'; b110 states E. coli BL21(DE3)pACA for a variant)
Procedure: The recombinant human carbonic anhydrase II was obtained by the means previously discussed herein. Fluorescence spectra and anisotropies were determined on a Spectronics AB-2 spectrophotofluorometer; the former are uncorrected. Fluorescence lifetimes were determined on an ISS K2 multifrequency phase fluorometer using the 442 nm line (30 mW) of a Kimmon HeCd laser (for BTCS) or the ultraviolet lines (100 mW) of a Spectra-Physics model 2065-7S argon ion laser (for dapoxyl sulfonamide) essentially as previously described. […]
In particular, emission of the bound form shifts from a peak at 605 nm to 530 nm, and increases about 90-fold, compared to the free form. […] The advantages of intensity ratios for accuracy in quantitating concentrations of metal ions such as calcium are by now widely appreciated. These intensity changes permit the affinity of holocarbonic anhydrase for Dapoxyl sulfonamide to be determined as […] (data not shown). The intensity increase of dapoxyl sulfonamide is also accompanied by a large increase in fluorescence lifetime. We measured the frequency-dependent phase angles and demodulation of dapoxyl sulfonamide free in solution, in the presence of holocarbonic anhydrase II, and in the presence of sonicated unilamellar vesicles of DOPC/cholesterol 3:1 (0.1 M). […]

[4] = target: T1, recombinant human carbonic anhydrase II, wild type, holoprotein (holo-CA, Zn(II) bound); conditions: comparison value, conditions not given; read-out: affinity (dansylamide, comparison value); cited from earlier work

With `NS(=O)(=O)c1ccc(SCCO)c2nonc12` [ABD-M, 7-fluorobenz-2-oxa-1,3,-diazole-4-sulfonamide+beta-mercaptoethanol adduct] the Kd [1] was 300 nM.
For `NS(=O)(=O)c1ccc(NCCO)c2nonc12` [ABD-N, 7-fluorobenz-2-oxa-1,3,-diazole-4-sulfonamide:ethanolamine adduct], the Kd [2] was ~300 nM.
`CN(C)c1ccc(-c2cnc(-c3ccc(S(N)(=O)=O)cc3)o2)cc1` [Dapoxyl sulfonamide] showed a Kd [3] of 300 nM.
For `CN(C)c1cccc2c(S(N)(=O)=O)cccc12` [dansylamide], the Kd [4] is given as 800 nM.
